Data reported in US9840478B2 (MERCK SHARP & DOHME CORP., priority 2013, dated 2017).

System: HIV-1 (H9IIIB strain)
Test: Cell-based HIV infection assay using a reporter (Cell-Based), MT4-GFP cells
Settings: Human immunodeficiency virus 1, MT4-GFP cells infected with HIV-1 H9IIIB; 50% normal human serum; mean of at least two independent experiments; read-out: Cell-based IP
Outline: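 IC50 from 4-parameter dose-response of % viral growth inhibition, using the 48 h/24 h infected-cell ratio scaled between DMSO and a protease/integrase/NNRTI triple-drug control. Assay used MT4 cells with HIV-LTR-GFP reporter, pre-infected 24 h with HIV-1 H9IIIB, in 50% normal human serum.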

## COC(=O)N[C@H](C(=O)Nc1cccc(F)c1CC[C@H]1CNC[C@H](C)N1S(=O)(=O)c1ccc(OC)cc1)[C@@H](Cc1ccc(F)cc1)c1ccc(Cl)cc1 [Example 187, (βS)-4-chloro-β-(4-fluorobenzyl)-N-[3-fluoro-2-(2-{(2S,6S)-1-[(4-methoxyphenyl)sulfonyl]-6-methylpiperazin-2-yl}ethyl)phenyl]-Nα-(methoxycarbonyl)-L-phenylalaninamide]
  IC50: 35 nM

## COc1ccc([C@H](c2ccc(Cl)cc2)[C@H](N)C(=O)Nc2cccc(F)c2CC[C@H]2CNC[C@H](C)N2S(=O)(=O)c2ccc(OC(F)(F)F)cc2)cn1 [Example 188, (βS)-4-chloro-N-(3-fluoro-2-{2-[(2S,6S)-6-methyl-1-{[4-(trifluoromethoxy)phenyl]sulfonyl}piperazin-2-yl]ethyl}phenyl)-β-(6-methoxypyridin-3-yl)-L-phenylalaninamide]
  IC50: 55 nM

## COC(=O)N[C@H](C(=O)Nc1cccc(F)c1CC[C@H]1CNC[C@H](C)N1S(=O)(=O)c1ccc(OC(F)(F)F)cc1)[C@@H](c1ccc(Cl)cc1)c1ccc(OC)nc1 [Example 189, (βS)-4-chloro-N-(3-fluoro-2-{2-[(2S,6S)-6-methyl-1-{[4-(trifluoromethoxy)phenyl]sulfonyl}piperazin-2-yl]ethyl}phenyl)-Nα-(methoxycarbonyl)-β-(6-methoxypyridin-3-yl)-L-phenylalaninamide]
  IC50: 29 nM

## COC(=O)N[C@H](C(=O)Nc1cncc(F)c1CC[C@H]1CNC[C@H](C)N1S(C)(=O)=O)[C@@H](c1ccc(F)cc1)c1cc(F)cc(F)c1 [Example 190, (βS)-β-(3,5-difluorophenyl)-4-fluoro-N-(5-fluoro-4-{2-[(2S,6S)-6-methyl-1-(methylsulfonyl)piperazin-2-yl]ethyl}pyridin-3-yl)-Nα-(methoxycarbonyl)-L-phenylalaninamide]
  IC50: 13 nM

## C[C@H]1CNC[C@H](CCc2c(F)cncc2NC(=O)[C@@H](N)[C@@H](c2ccc(F)cc2)c2cc(F)cc(F)c2)N1S(C)(=O)=O [Example 191, (βS)-β-(3,5-difluorophenyl)-4-fluoro-N-(5-fluoro-4-{2-[(2S,6S)-6-methyl-1-(methylsulfonyl)piperazin-2-yl]ethyl}pyridin-3-yl)-L-phenylalaninamide]
  IC50: 20 nM

## C[C@@H]1CNC[C@H](CCc2c(F)cccc2NC(=O)[C@@H](N)[C@@H](c2ccc(F)cc2)c2cc(F)cc(F)c2)N1S(=O)(=O)C1CC1 [Example 192, (βS)-N-(2-{2-[(2S,6R)-1-(cyclopropylsulfonyl)-6-methylpiperazin-2-yl]ethyl}-3-fluorophenyl)-β-(3,5-difluorophenyl)-4-fluoro-L-phenylalaninamide]
  IC50: 36 nM

## C[C@H]1CNC[C@H](CCc2c(F)cccc2NC(=O)[C@@H](N)[C@@H](Cc2ccc(F)cc2)c2ccc(Cl)cc2)N1S(=O)(=O)c1ccccc1 [Example 193, (βS)-4-chloro-β-(4-fluorobenzyl)-N-(3-fluoro-2-{2-[(2S,6S)-6-methyl-1-(phenylsulfonyl)piperazin-2-yl]ethyl}phenyl)-L-phenylalaninamide]
  IC50: 56 nM

## COC(=O)N[C@H](C(=O)Nc1cccc(F)c1CC[C@H]1CNC[C@H](C)N1S(=O)(=O)c1ccccc1)[C@@H](Cc1ccc(F)cc1)c1ccc(Cl)cc1 [Example 194, (βS)-4-chloro-β-(4-fluorobenzyl)-N-(3-fluoro-2-{2-[(2S,6S)-6-methyl-1-(phenylsulfonyl)piperazin-2-yl]ethyl}phenyl)-Nα-(methoxycarbonyl)-L-phenylalaninamide]
  IC50: 34 nM

## C[C@@H]1CNC[C@H](CCc2c(F)cccc2NC(=O)[C@@H](N)[C@@H](Cc2ccc(F)cc2)c2ccc(Cl)cc2)N1S(=O)(=O)c1ccccc1 [Example 195, (βS)-4-chloro-β-(4-fluorobenzyl)-N-(3-fluoro-2-{2-[(2S,6R)-6-methyl-1-(phenylsulfonyl)piperazin-2-yl]ethyl}phenyl)-L-phenylalaninamide]
  IC50: 77 nM

## COC(=O)N[C@H](C(=O)Nc1cccc(F)c1CC[C@H]1CNC[C@@H](C)N1S(=O)(=O)c1ccccc1)[C@@H](Cc1ccc(F)cc1)c1ccc(Cl)cc1 [Example 196, (βS)-4-chloro-β-(4-fluorobenzyl)-N-(3-fluoro-2-{2-[(2S,6R)-6-methyl-1-(phenylsulfonyl)piperazin-2-yl]ethyl}phenyl)-Nα-(methoxycarbonyl)-L-phenylalaninamide]
  IC50: 49 nM

## C[C@H]1CNC[C@H](CCc2c(F)cncc2NC(=O)[C@@H](N)[C@@H](c2ccc(F)cc2)c2cc(F)cc(F)c2)N1S(=O)(=O)C1CC1 [Example 197, (BS)-N-(4-{2-[(2S,6S)-1-(cyclopropylsulfonyl)-6-methylpiperazin-2-yl]ethyl}-5-fluoropyridin-3-yl)-β-(3,5-difluorophenyl)-4-fluoro-L-phenylalaninamide]
  IC50: 18 nM

## C[C@H]1CNC[C@H](CCc2c(F)cccc2NC(=O)[C@@H](N)[C@@H](c2ccc(Cl)cc2)c2cc(F)cc(F)c2)N1S(C)(=O)=O [Example 198, (βS)-4-chloro-β-(3,5-difluorophenyl)-N-(3-fluoro-2-{2-[(2S,6S)-6-methyl-1-(methylsulfonyl)piperazin-2-yl]ethyl}phenyl)-L-phenylalaninamide]
  IC50: 21 nM

## C[C@H]1CNC[C@H](CCc2c(F)cccc2NC(=O)[C@@H](N)[C@@H](c2ccc(Cl)cc2)c2cc(F)cc(F)c2)N1S(=O)(=O)C1CC1 [Example 199, (βS)-4-chloro-N-(2-{2-[(2S,6S)-1-(cyclopropylsulfonyl)-6-methylpiperazin-2-yl]ethyl}-3-fluorophenyl)-β-(3,5-difluorophenyl)-L-phenylalaninamide]
  IC50: 20 nM

## COC(=O)N[C@H](C(=O)Nc1cccc(F)c1CC[C@H]1CNC[C@H](C)N1S(C)(=O)=O)[C@@H](c1ccc(Cl)cc1)c1cc(F)cc(F)c1 [Example 200, (βS)-4-chloro-β-(3,5-difluorophenyl)-N-(3-fluoro-2-{2-[(2S,6S)-6-methyl-1-(methylsulfonyl)piperazin-2-yl]ethyl}phenyl)-Nα-(methoxycarbonyl)-L-phenylalaninamide]
  IC50: 16 nM

## COC(=O)N[C@H](C(=O)Nc1cccc(F)c1CC[C@H]1CNC[C@H](C)N1S(=O)(=O)C1CC1)[C@@H](c1ccc(Cl)cc1)c1cc(F)cc(F)c1 [Example 201, (βS)-4-chloro-N-(2-{2-[(2S,6S)-1-(cyclopropylsulfonyl)-6-methylpiperazin-2-yl]ethyl}-3-fluorophenyl)-β-(3,5-difluorophenyl)-Nα-(methoxycarbonyl)-L-phenylalaninamide]
  IC50: 16 nM

## C[C@H]1CNC[C@H](CCc2c(F)cccc2NC(=O)[C@@H](N)[C@@H](Cc2ccc(F)cc2)c2ccc(Cl)cc2)N1S(C)(=O)=O [Example 202, (βS)-4-chloro-β-(4-fluorobenzyl)-N-(3-fluoro-2-{2-[(2S,6S)-6-methyl-1-(methylsulfonyl)piperazin-2-yl]ethyl}phenyl)-L-phenylalaninamide]
  IC50: 620 nM

## C[C@@H]1CNC[C@H](CCc2c(F)cccc2NC(=O)[C@@H](N)[C@H](c2cccc(F)c2)c2cccc(Cl)c2)N1S(=O)(=O)C1CC1 [Example 203, (βR)-3-chloro-N-(2-{2-[(2S,6R)-1-(cyclopropylsulfonyl)-6-methylpiperazin-2-yl]ethyl}-3-fluorophenyl)-β-(3-fluorophenyl)-L-phenylalaninamide]
  IC50: 620 nM

## C[C@@H]1CNC[C@H](CCc2c(F)cccc2NC(=O)[C@@H](N)[C@@H](c2ccc(Cl)cc2)c2cccc(F)c2)N1S(=O)(=O)C1CC1 [Example 204, (βS)-4-chloro-N-(2-{2-[(2S,6R)-1-(cyclopropylsulfonyl)-6-methylpiperazin-2-yl]ethyl}-3-fluorophenyl)-β-(3-fluorophenyl)-L-phenylalaninamide]
  IC50: 80 nM

## CS(=O)(=O)N1[C@@H](CCc2c(F)cccc2NC(=O)[C@@H](N)[C@@H](c2ccc(F)cc2)c2cc(F)cc(F)c2)CNC[C@@H]1C1CC1 [Example 205, (βS)-N-(2-{2-[(2S,6S)-6-cyclopropyl-1-(methylsulfonyl)piperazin-2-yl]ethyl}-3-fluorophenyl)-β-(3,5-difluorophenyl)-4-fluoro-L-phenylalaninamide]
  IC50: 22 nM

## CC(C)[C@H](c1cccc(Cl)c1)[C@H](N)C(=O)Nc1cccc(F)c1CC[C@H]1CNC[C@@H](C)N1S(=O)(=O)c1ccccc1 [Example 206, (βR)-3-chloro-N-(3-fluoro-2-{2-[(2S,6R)-6-methyl-1-(phenylsulfonyl)piperazin-2-yl]ethyl}phenyl)-β-(1-methylethyl)-L-phenylalaninamide]
  IC50: 480 nM

## CC(C)[C@H](c1cccc(Cl)c1)[C@H](N)C(=O)Nc1cccc(F)c1CC[C@H]1CNC[C@H](C)N1S(=O)(=O)c1ccccc1 [Example 207, (βR)-3-chloro-N-(3-fluoro-2-{2-[(2S,6S)-6-methyl-1-(phenylsulfonyl)piperazin-2-yl]ethyl}phenyl)-β-(1-methylethyl)-L-phenylalaninamide]
  IC50: 760 nM

## COC(=O)N[C@H](C(=O)Nc1cccc(F)c1CC[C@H]1CNC[C@@H](C)N1S(=O)(=O)c1ccccc1)[C@@H](c1cccc(Cl)c1)C(C)C [Example 208, (βR)-3-chloro-N-(3-fluoro-2-{2-[(2S,6R)-6-methyl-1-(phenylsulfonyl)piperazin-2-yl]ethyl}phenyl)-Nα-(methoxycarbonyl)-β-(1-methylethyl)-L-phenylalaninamide]
  IC50: 42 nM

## COC(=O)N[C@H](C(=O)Nc1cccc(F)c1CC[C@H]1CNC[C@H](C)N1S(=O)(=O)c1ccccc1)[C@@H](c1cccc(Cl)c1)C(C)C [Example 209, (βR)-3-chloro-N-(3-fluoro-2-{2-[(2S,6S)-6-methyl-1-(phenylsulfonyl)piperazin-2-yl]ethyl}phenyl)-Nα-(methoxycarbonyl)-β-(1-methylethyl)-L-phenylalaninamide]
  IC50: 77 nM
